Experimental data as given in the pKa sets of Baltruschat and Czodrowski (2020).
Where a SMILES comes first, the peptide text is derived from it.

Conditions: acidic group
With CCCS the pKa was 10.6.
Compound CC1(C)O[C@@H]2CC(=O)OC[C@]23[C@@H]1CC(=O)[C@@]1(C)[C@H]3C[C@](C)(CC2CCOC2)C[C@]12O[C@H]2C(=O)O (stereo partly drawn) has a pKa of 2.7.
With Brc1ccc2c(c1)C([P+](c1ccccc1)(c1ccccc1)c1ccccc1)c1ccccc1-2 (stereo not drawn) the pKa was 7.33.
For Cc1c(Cn2cc[nH+]c2)sc2cc(C(=O)O)ccc12, the pKa was 3.59.
In the case of O=C([O-])c1cccc(O)c1, the pKa is reported as 9.81.
CCC(=O)/C=N/O gave a pKa of 8.37.
Cc1ccc(O)c2ncccc12 gave a pKa of 9.93.
Nc1nc2cccc[n+]2o1 showed a pKa of 7.18.
Work on O=C(O)CC(O)c1ccccc1 (stereo not drawn) yielded a pKa of 4.4.
With COc1ccccc1CCC(=O)O the pKa was 4.8.
For O=[N+]([O-])c1cc(O)ccc1[O-], the pKa was 10.1.
Compound CC(C)c1cccc2ccc(O)cc12 has a pKa of 9.52.
In the case of O=S(=O)(Nc1ccc(Cl)cc1)c1ccccc1, the pKa is reported as 7.91.
With Cc1nc(-c2ccccc2[S-])[nH]c1C the pKa was 9.
CC(=O)c1cccc(O)c1 gave a pKa of 9.12.
Compound CCP(=O)(O)CC has a pKa of 3.22.
Work on O=[Se](O)c1ccccc1 yielded a pKa of 4.79.
O=C(O)CCc1ccoc1 showed a pKa of 4.44.
In the case of O=C(O)c1ccc2sc(Cn3cc[nH+]c3)cc2c1, the pKa is reported as 3.9.
O=P([O-])(O)C([NH2+]Cc1ccncc1)c1ccccc1O (stereo not drawn) gave a pKa of 5.2.
Compound NC(=O)C1CCCCN1 (stereo not drawn) has a pKa of 8.9.
With Cc1cccc(C(=O)N(C)O)c1 the pKa was 8.52.
In the case of [O-]\N=C1/CCCC(=N\O)/C1=N/[O-], the pKa is reported as 12.2.
Cc1ccc(C(=O)NO)cc1 gave a pKa of 8.9.
For Cc1cc(S(=O)(=O)Nc2nccs2)ccc1N, the pKa was 7.
CP(C)(=O)O showed a pKa of 3.08.
With CC(=O)CC(=O)Nc1ccccc1 the pKa was 9.94.
Compound CC(C)C(N)C(N)=O (stereo not drawn) has a pKa of 8.
Compound CCCS(=O)O has a pKa of 2.35.
Compound NC(=O)[C@H](CCC(=O)O)NC=O has a pKa of 4.3.
CC1(C(=O)O)CCCCC1 gave a pKa of 5.13.
Work on Cc1ccc(/C=N/O)cc1 yielded a pKa of 10.9.
In the case of Oc1ccc(-c2ccccc2)cc1, the pKa is reported as 9.47.
For O=C(O)c1ccc(CCl)cc1, the pKa was 4.13.
For O=C1CSc2ncnc(N3CCOCC3)c2N1, the pKa was 10.4.
O=C(O)c1ccc[nH+]c1 showed a pKa of 2.03.
Compound O=c1cccccc1O has a pKa of 6.87.
In the case of O=C(c1ccccc1)c1ccc(O)c(O)c1, the pKa is reported as 7.74.
Compound O=C(O)c1cnoc1 has a pKa of 3.39.
In the case of Oc1ccc(Cl)c(Cl)c1, the pKa is reported as 8.58.
O=S1(=O)N=CNc2cccnc21 gave a pKa of 6.94.
For CC[NH+](CC)Cc1c(O)c(Cl)cc(Cl)c1Cl, the pKa was 5.13.
For Oc1cccc2scnc12, the pKa was 8.77.
O=C(O)CC(c1ccccc1)c1ccccc1Cl (stereo not drawn) gave a pKa of 4.7.
For Cc1csc(C(=O)O)c1, the pKa was 3.66.
Compound O=C1CC(=O)NC(=S)[N-]1 has a pKa of 10.7.
With CCOC(=O)C(Cc1cccc(C)c1)C(C)=O (stereo not drawn) the pKa was 11.9.
In the case of CC1CC(C)C(=O)CC1=O (stereo not drawn), the pKa is reported as 5.62.
Cc1ccc(C(=S)Nc2ccc(F)cc2)cc1 showed a pKa of 11.
Work on Cc1ccc(S(N)(=O)=O)cc1 yielded a pKa of 9.89.
Cc1cc(C)c(C(C(=O)O)c2ccccc2)c(C)c1 (stereo not drawn) showed a pKa of 4.
With [O-]c1cccc2c1-c1cccc(O)c1-2 the pKa was 9.97.
Nc1ccc(S(=O)(=O)Nc2cnc(Cl)nc2)cc1 gave a pKa of 5.8.
Work on Cc1cccc(C)c1NN=C(C#N)C#N yielded a pKa of 6.6.
Work on O=[N+]([O-])c1ccc2c(c1)C([P+](c1ccccc1)(c1ccccc1)c1ccccc1)c1ccccc1-2.[Br-] (stereo not drawn) yielded a pKa of 5.36.
In the case of Cc1ccc(O)c(C(=O)O)c1, the pKa is reported as 3.01.
O=C(CC(=O)c1ccccc1)Nc1ccccc1[N+](=O)[O-] gave a pKa of 9.54.
Compound O=C(O)c1ccccc1-c1ccccc1 has a pKa of 3.46.
For NC(=S)Nc1ccc(Br)cc1, the pKa was 12.3.
With Cc1ccc(C(=O)N(C)O)cc1 the pKa was 8.5.
With Nc1cc[nH+]c2c(O)cccc12 the pKa was 6.91.
Compound CCC1(CC)C(=O)NC(=O)N(C(=O)c2ccccc2OC)C1=O has a pKa of 6.54.
In the case of CC#CC#CC(=O)O, the pKa is reported as 1.94.
With Oc1cccc2ncccc12 the pKa was 8.54.
In the case of Cc1cc(C)nc(NS(=O)(=O)c2ccc(O)cc2)n1, the pKa is reported as 7.52.
In the case of O=C1NC(=O)c2cc(Cl)ccc21, the pKa is reported as 9.48.
Work on Cn1c(C(=O)O)cc(=O)n(C)c1=O yielded a pKa of 0.8.
O=C1CNC(=O)N1 gave a pKa of 9.12.
Cc1cc(C)c(O)cc1C showed a pKa of 10.6.
In the case of Cc1cccc(C)c1NC(=S)c1ccccc1, the pKa is reported as 10.8.
Work on O=S(=O)(O)c1ccc(O)cc1 yielded a pKa of 4.51.
With CC(C#N)CC(=O)O (stereo not drawn) the pKa was 3.95.
In the case of COc1cc(C)ccc1C(=O)O, the pKa is reported as 4.38.
In the case of CCn1nnnc1CC(=O)O, the pKa is reported as 2.85.
CCCC(=O)OO gave a pKa of 8.2.
With O=C([O-])[C@H](NCC[NH2+][C@@H](C(=O)[O-])c1ccccc1[O-])c1ccccc1O the pKa was 10.9.
For CCOC(=O)c1c(C)nc(C)c(C(=O)OCC)c1-c1ccc(NS(=O)(=O)c2ccc(N)cc2)cc1, the pKa was 9.15.
Work on CC(=O)N1CS(=O)C[C@H]1C(=O)O (stereo partly drawn) yielded a pKa of 2.5.
Work on Cc1ccc(OCC(=O)O)cc1 yielded a pKa of 3.15.
Compound OC(c1ccncc1)(c1ccncc1)c1ccncc1 has a pKa of 11.8.
In the case of CCCC[P+](CCCC)(CCCC)C1c2ccccc2-c2ccccc21, the pKa is reported as 10.5.

Same assay, conditions: basic group
In the case of Cc1cc(-c2cc(C)n(C)n2)nn1C, the pKa is reported as 2.22.
O=C([O-])c1cccc2cc3ccccc3nc12 showed a pKa of 7.72.
Compound Cc1ccc(S(=O)(=O)N(C)CCC(=N)N)cc1 has a pKa of 11.5.
O=[N+]([O-])c1ccc(Nc2ccccc2)cc1 showed a pKa of -2.5.
Work on c1ccc(-c2ccc(NCC[NH+]3CCOCC3)nn2)cc1 yielded a pKa of 3.74.
COc1ccc(N)cc1CN showed a pKa of 9.77.
With CCCSC(=O)CCCc1c[nH]cn1 the pKa was 7.55.
Compound CC(N)C(=O)[O-] (stereo not drawn) has a pKa of 9.83.
Work on CC(O)CNC(C)(C)C (stereo not drawn) yielded a pKa of 10.
Cc1ccc(O)c2ncccc12 gave a pKa of 5.29.
CCCCCSC(=N)c1ccccc1 gave a pKa of 8.5.
In the case of Nc1cccc2ncncc12, the pKa is reported as 3.57.
NC(CC(=O)[O-])C(=O)NC(CC(=O)[O-])C(=O)[O-] (stereo not drawn) (H-Asp-Asp-OH; configuration not given here) gave a pKa of 8.26.
C/N=C1/CCCCC1C (stereo not drawn) showed a pKa of 9.47.
Compound COc1ccc(-c2cn3cccnc3n2)c(OC)c1 has a pKa of 4.34.
For Nc1cnc2cc3ccccc3cc2c1, the pKa was 4.78.
With COCCc1nc(C)c[nH]1 the pKa was 8.13.
For C1=C(c2ccccc2)C2CCN1CC2, the pKa was 9.1.
O=[Se](O)c1ccccc1 showed a pKa of -0.9.
For Nc1c(Br)cccc1Br, the pKa was 0.36.
Compound O=P([O-])(O)C([NH2+]Cc1ccncc1)c1ccccc1O (stereo not drawn) has a pKa of 3.15.
Compound CC(CC(C#N)(c1ccccc1)c1ccccc1)N1CCCCC1 (stereo not drawn) has a pKa of 7.73.
In the case of Cc1cnc2c(ccc3cccnc32)c1C, the pKa is reported as 5.62.
Compound Clc1ccc2[nH]cnc2c1 has a pKa of 4.86.
COc1ccc(N)cc1Br showed a pKa of 4.09.
With c1c[nH]c(P(c2ncc[nH]2)c2[nH]cc[nH+]2)n1 the pKa was 6.59.
Compound Cc1[nH]cnc1CSCCNC(=[NH2+])NCCCc1c[nH]cn1 has a pKa of 7.26.
Compound N/C(CC/C(N)=N/O)=N\O has a pKa of 5.97.
With Cc1ccnnc1C the pKa was 4.1.
O=C([O-])c1ccccn1 gave a pKa of 5.32.
For CNc1ccnc([S-])n1, the pKa was 11.1.
With Cn1cnc2ncn(C)c2c1=O the pKa was 2.16.
For C=CC(C)(C)NC(C)(C)CC, the pKa was 10.8.
Work on CN(C)c1cccc2cccc([NH+](C)C)c12 yielded a pKa of -9.
COC(=O)[C@@H]1[C@H](O)C[C@@H]2CC[C@H]1N2C showed a pKa of 8.85.
With Cc1cc(Cl)n(C)c2nc3ccccc3c1-2 the pKa was 7.45.
Work on [O-]c1c(Cl)cc(Cl)cc1CN1CCCCC1 yielded a pKa of 11.1.
With COc1nc2ccccc2nc1OC the pKa was -1.15.
CC1(C)CN1 gave a pKa of 5.37.
O=C1CSc2ncnc(N3CCOCC3)c2N1 showed a pKa of 2.07.
With O=C(O)c1ccc[nH+]c1 the pKa was -2.4.
Compound Cc1ccccc1CN has a pKa of 9.23.
Work on CC(C)NCC[NH2+]C(C)C yielded a pKa of 7.59.
Work on O=P([O-])([O-])C(NCc1ccncc1)c1ccccc1[O-] (stereo not drawn) yielded a pKa of 12.2.
With CN1C[C@H](C(=O)[O-])C[C@@]2(O)c3cccc4[nH]cc(c34)C[C@H]12 the pKa was 9.17.
In the case of Cc1ccc(N2CCCC2)cc1, the pKa is reported as 4.69.
In the case of C[n+]1nc(-c2ccccc2)ccc1NCCN1CCOCC1, the pKa is reported as 5.31.
In the case of [O-]c1ccc(Cl)cc1CN1CCCCC1, the pKa is reported as 11.8.
For Nc1nccnn1, the pKa was 4.
Compound CCOCCn1c(N2CCC[NH+](CCCCn3cc(C(=O)[O-])cn3)CC2)nc2ccccc21 has a pKa of 5.1.
Work on Oc1cccc2scnc12 yielded a pKa of 1.25.
OCCCNc1ccccc1 gave a pKa of 4.53.
CN(C)CCSCC[NH+](C)C gave a pKa of 8.
Work on COc1cc2c(cc1OC)C(=O)Cc1ccc3c(c1CN(C)CC2)OCO3 yielded a pKa of 8.09.
In the case of CCN(C#N)CC, the pKa is reported as -2.
CCCCCNCc1ccccc1O gave a pKa of 8.65.
Nc1ccc(/C=C/c2cc(N)c3ccccc3n2)cc1 gave a pKa of 9.5.
For CSc1cccc2ncccc12, the pKa was 4.5.
Compound Nc1cccc2c1nnn2[C@@H]1C[C@@H](O)[C@H](CO)O1 has a pKa of 1.9.
Work on CN1CCCN(C)c2cccc3cccc1c23 yielded a pKa of 10.3.
Compound NCCCCCCBr has a pKa of 10.6.
Cn1cc/c(=N\N)c2ccccc21 gave a pKa of 10.6.
Compound c1ccc(-c2ccncc2)cc1 has a pKa of 5.3.
For COc1ccc2c3c1O[C@H]1CCC[C@H]4[C@@H](C2)N(C)CC[C@]314, the pKa was 8.83.
Compound Cc1cc(-n2nc(C)cc2C)[nH]n1 has a pKa of 2.23.
Work on CC(C)c1cccnc1 yielded a pKa of 5.72.
Compound CCN(CC)CC(=O)N(C)c1ccccc1C has a pKa of 8.74.
Work on Cc1cccc(C)c1NN=C(C#N)C#N yielded a pKa of -0.82.
In the case of CNc1cccnc1, the pKa is reported as 6.41.
Cc1c2ccncc2cc2c1[nH]c1ccncc12 gave a pKa of 7.5.
For CCN(CC)Cc1cc([N+](=O)[O-])c2ccccc2c1[O-], the pKa was 11.
Compound CC1CCN1 (stereo not drawn) has a pKa of 11.
Work on Cc1ccc(CN)cc1 yielded a pKa of 9.51.
Compound CNC(C)(C)C(=O)[O-] has a pKa of 10.8.
C[C@]1(O)CCCC[C@@H]1N showed a pKa of 9.49.
CCN(CC)CCNc1cc(C)nc(Nc2ccc(Cl)cc2)n1 showed a pKa of 9.05.
For CN1CCCC1c1ccccc1 (stereo not drawn), the pKa was 8.8.
Oc1cccc2ncccc12 gave a pKa of 5.2.
C[NH2+]CC(=O)NCCc1c[nH]cn1 gave a pKa of 6.77.
CCCCC/C(N)=N/N(C)C showed a pKa of 10.4.
For Nc1ncc(-c2ccccc2)s1, the pKa was 4.9.
Work on c1ncc2c(n1)NCCN2 yielded a pKa of 6.63.
Work on Cc1ccc(NC(C)(C)C)cc1 yielded a pKa of 7.3.
With CCc1cc(Cl)c(OC)c(C(=O)NC[C@H]2CCCN2CC)c1[O-] the pKa was 9.77.
Work on C1CCC2(CC1)N1CCCN12 (stereo not drawn) yielded a pKa of 5.19.
For CCCCCCCCCCN(CCO)CC(O)CC (stereo not drawn), the pKa was 7.2.
NC(c1ncc[nH]1)c1ncc[nH]1 gave a pKa of 6.49.
With C[Si](C)(C)OC1CN(Cc2ccc(F)cc2)C1 the pKa was 7.91.
Work on Nc1cccc2cncnc12 yielded a pKa of 2.81.
Compound C#CC(C)(C)N(C)C(C)(C)C#C has a pKa of 6.65.
In the case of Nc1cccc2cccc(N)c12, the pKa is reported as 4.6.
In the case of C1CNC[NH2+]C1, the pKa is reported as 4.71.
